In general, % Inhibition refers to the share of the control response that was lost under treatment.

Values joined by “and” are separate entries in the source; they are usually repeats but may differ in a detail not shown here. Equal entries are not always repeated.

For assay [1], the system named is croton oil-induced ear edema. Briefly: Mouse ear edema inhibition test (croton oil). Particulars: ear swelling thickness 4 hours after 2.5% croton oil, oral 20 mg/kg, 1 hour before. Format: in vivo, male ICR mouse. The procedure:
To achieve active fraction and ingredient identification of herbal extracts, an activity-guided sub-fractionation was conducted by way of a mouse ear edema inhibition test. To evaluate the edema inhibitory effects of the MC, EA and BuOH fractions from the herbal extracts of Examples 1.2 and 1.3 and the three compounds identified above, an activity test was conducted according to a method by Hee Kee Kim et al. [Hee Kee Kim et al., Arch. Pharm. Res. 16(1), 1993, 18-24]. The positive control group received Indomethacin (purchased from Sigma) at a dosage of 20 mg/kg. The test group received 200 mg/kg of the MC, EA or BuOH fraction, or 20 mg/kg of the compound 1, 2 or 3. One hour after the oral administration, 2.5% croton oil (purchased from Sigma) was applied to the one ear of a male ICR mouse (7 weeks old, 28-32 g, Orient) to induce an acute inflammation. In 4 hours, the swelling of the ear was measured in terms of thickness.

In assay [2] the test system is gentamicin-induced nephritis model. Briefly: Therapeutic effect of compounds 1-3 on gentamicin-induced nephritis model (Experimental Example 10). In kind it is in vivo, male SD rats. Particulars: for Creatinine / B.U.N.: 20 mg/kg; for Creatinine: negative control 1.32 ± 0.12, normal 0.45 ± 0.01; for B.U.N.: negative control 83.0 ± 5.1, normal 12.4 ± 0.6. The procedure:
A normal group was subjected to the tests, where a nephritis-inducing factor, gentamicin (purchased from Whail Pharma. Co., Ltd.) was administered to male SD rats (7 weeks old, 195-205 g, Orient) at a dosage of 240 mg/kg for 6 days through an intraperitioneal injection to induce nephritis. Among the test rats with induced nephritis, the test groups other than the negative control group received the 2 test drugs of Example 2 or the test drug of Example 3.1 or 3.4 orally at a daily dosage of 400 mg/kg. The test rats were autopsied 7 days after the oral administrations. The blood samples collected were analyzed to detect blood urea nitrogen (B.U.N.) and creatinine.
To evaluate the therapeutic effect for nephritis of the three compounds of Experimental Example 9, the procedures were carried out in the same manner of Experimental Example 1 to measure the B.U.N and creatinine contents in the gentamicin-induced nephritis model. Reagents were the compounds 1, 2 and 3, which were the active fractions from the herbal extracts of Cinnamomi Cortex and Prunella Spica.

The mark [3] stands for this setting: relative to negative control group.

In the case of `O=C(/C=C/c1ccc(O)c(O)c1)O[C@H](Cc1ccc(O)c(O)c1)C(=O)O` [Compound 3, Rosmarinic acid], in assay [1], the “% Inhibition” value was 28.90%. Besides, in assay [2], the Creatinine worked out at 0.97 ± 0.06 mg/dL and the B.U.N. was 63.1 ± 7.2 mg/dL.

Take `O=C(O)C=Cc1ccccc1` [Compound 1, Cinnamic acid]: the “% Inhibition” value in assay [1] (20 mg/kg) is 42% and 42.40%. In assay [2], this compound yielded a Creatinine of 0.81 ± 0.07 mg/dL and a B.U.N. of 47.7 ± 5.7 mg/dL. Also, in assay [2] (setting [3]), the “effect on blood urea nitrogen (B.U.N.) content” value is “showed an effect of reducing the blood urea nitrogen (B.U.N.) content” and the “effect on creatinine content” value is reported as “reduced the creatinine content”.

Take `O=c1ccc2ccccc2o1` [Compound 2, Coumarin]: the “% Inhibition” value in assay [1] (20 mg/kg) was 39% and 38.79%. In addition, in assay [2], the Creatinine turned out to be 0.88 ± 0.06 mg/dL and the B.U.N. was 50.9 ± 4.7 mg/dL. For the same compound, the “effect on blood urea nitrogen (B.U.N.) content” value in assay [2] (setting [3]) is on record as “showed an effect of reducing the blood urea nitrogen (B.U.N.) content”.

`COc1ccc2c(c1)c(CC(=O)O)c(C)n2C(=O)c1ccc(Cl)cc1` [Positive Control Group, Indomethacin, reference compound]: the “% Inhibition” value in assay [1] (20 mg/kg) worked out at 38.81%; in assay [1] (listed as positive control group, 20 mg/kg) it was 39%.
